Assay results from US5019575A, “Novel pyridazinone compounds, compositions thereof and method of use” (Orion-yhtyma Oy, priority 1989, dated 1991).
Read-outs that look alike come from different tables or passages of the source.

Key:
troponin = assay: Retention time in troponin high-performance liquid affinity chromatography (HPLAC) column, calcium dependent binding to troponin; conditions: for Ratio Ca^2+ /EDTA (retention times in troponin-HPLAC column): Ca^2+ solution / EDTA solution; for Retention time in troponin-HPLAC column, Ca^2+ solution: mobile phase with 30 mM calcium; for Retention time in troponin-HPLAC column, Ca^2+ solution / Retention time in troponin-HPLAC column, EDTA solution: flow rate 1 ml/min; for Retention time in troponin-HPLAC column, EDTA solution: mobile phase without calcium (EDTA)
Description: The contraction in cardiac muscle and in vascular smooth muscle is triggered by the binding of calcium to troponin and to calmodulin, respectively. […] Commercially available troponin was coupled to the matrix of SelectiSpher-10™ Activated Tresyl silica HPLAC column (size 10 cm×5 mm). The compounds were run through the column with the flow rate 1 ml/min and detected by UV-spectrophotometrically.

[1] = test system: guinea-pig papillary muscle; assay: Ability to induce tonic contraction in papillary muscle in the absence of extracellular calcium; conditions: drug concentration 100 μM; no extracellular calcium
Description: The cardiotonic action of the compound was studied in isolated, electrically driven, right ventricular papillary muscle of guinea-pig. In order to compare the cardiotonic action based on PDEIII inhibition to that based on the other mechanisms the experiments were carried out in normal Tyrode's bathing solution (Otani et al., Japan. J. Pharmacol. 45, 425, 1987) and also in the solution with carbachol to eliminate the cardiotonic action due to the PDEIII inhibition (Alousi & Johnson, Circulation, 73 (suppl. III), 10-23, 1986).
C = ability to induce tonic contraction in the absence of extracellular
calcium; drug concentration 100 μM

[2] = test system: guinea-pig papillary muscle; assay: Cardiotonic effect in isolated, electrically driven, right ventricular papillary muscle, without and with carbachol; conditions: for EC50: Cavia porcellus; for Ratio B/A of EC50: with 10 μM carbachol / without carbachol
Description: The cardiotonic action of the compound was studied in isolated, electrically driven, right ventricular papillary muscle of guinea-pig.
A = experiments carried out without carbachol
B = experiments carried out in the presence of 10 μM carbachol

[3] = biological target: T1, cardiac phosphodiesterase III (PDEIII), dog (Canis lupus familiaris, UniProt A0A8I3NYE0); assay: Inhibition of cardiac phosphodiesterase III, dog heart enzyme preparation; assay type: biochemical
T1 construct: enzyme preparation isolated from dog and guinea-pig heart; from tissue; host or cells: dog heart
T1 sequence (A0A8I3NYE0 1-1135): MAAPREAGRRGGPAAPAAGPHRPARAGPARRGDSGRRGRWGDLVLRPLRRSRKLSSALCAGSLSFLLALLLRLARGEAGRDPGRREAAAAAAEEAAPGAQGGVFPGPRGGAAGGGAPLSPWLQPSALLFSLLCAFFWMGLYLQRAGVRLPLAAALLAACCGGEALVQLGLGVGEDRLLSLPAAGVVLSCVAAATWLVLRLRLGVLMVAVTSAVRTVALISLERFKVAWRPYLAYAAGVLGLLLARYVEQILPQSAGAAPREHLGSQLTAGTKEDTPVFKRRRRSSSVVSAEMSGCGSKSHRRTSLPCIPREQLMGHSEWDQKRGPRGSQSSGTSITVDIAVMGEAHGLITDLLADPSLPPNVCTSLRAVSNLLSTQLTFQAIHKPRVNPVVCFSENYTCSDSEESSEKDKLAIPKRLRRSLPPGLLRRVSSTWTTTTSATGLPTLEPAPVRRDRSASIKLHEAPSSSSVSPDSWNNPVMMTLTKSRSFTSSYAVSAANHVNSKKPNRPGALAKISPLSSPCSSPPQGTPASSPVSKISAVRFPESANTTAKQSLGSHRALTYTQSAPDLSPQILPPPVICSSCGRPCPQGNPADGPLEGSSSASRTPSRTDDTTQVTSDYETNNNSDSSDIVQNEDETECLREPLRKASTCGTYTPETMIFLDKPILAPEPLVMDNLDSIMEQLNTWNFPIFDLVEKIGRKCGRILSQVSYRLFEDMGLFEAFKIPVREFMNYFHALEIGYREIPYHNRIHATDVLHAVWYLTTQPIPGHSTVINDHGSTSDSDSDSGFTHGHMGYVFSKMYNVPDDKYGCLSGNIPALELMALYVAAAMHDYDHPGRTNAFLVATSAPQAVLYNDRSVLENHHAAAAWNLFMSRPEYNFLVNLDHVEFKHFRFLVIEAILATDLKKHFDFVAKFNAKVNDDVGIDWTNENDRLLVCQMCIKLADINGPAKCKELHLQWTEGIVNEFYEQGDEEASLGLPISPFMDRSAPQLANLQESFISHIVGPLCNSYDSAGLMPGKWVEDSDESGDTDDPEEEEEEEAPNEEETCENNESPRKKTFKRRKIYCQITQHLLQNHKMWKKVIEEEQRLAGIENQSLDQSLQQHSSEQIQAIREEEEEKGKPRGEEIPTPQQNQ

[4] = Precipitation at 100 μM concentration (footnote of Table 3); assay type: physicochemical; design: key: *: precipitation occurs at 100 μM concentration; conditions: printed in column C of Table 3
[5] = biological target: T2, cardiac phosphodiesterase III (PDEIII), guinea-pig (Cavia porcellus, UniProt H0VIU9); assay: Inhibition of cardiac phosphodiesterase III, guinea-pig heart enzyme preparation; assay type: biochemical
T2 construct: enzyme preparation isolated from dog and guinea-pig heart; from tissue; host or cells: guinea-pig heart
T2 sequence (H0VIU9 1-1132): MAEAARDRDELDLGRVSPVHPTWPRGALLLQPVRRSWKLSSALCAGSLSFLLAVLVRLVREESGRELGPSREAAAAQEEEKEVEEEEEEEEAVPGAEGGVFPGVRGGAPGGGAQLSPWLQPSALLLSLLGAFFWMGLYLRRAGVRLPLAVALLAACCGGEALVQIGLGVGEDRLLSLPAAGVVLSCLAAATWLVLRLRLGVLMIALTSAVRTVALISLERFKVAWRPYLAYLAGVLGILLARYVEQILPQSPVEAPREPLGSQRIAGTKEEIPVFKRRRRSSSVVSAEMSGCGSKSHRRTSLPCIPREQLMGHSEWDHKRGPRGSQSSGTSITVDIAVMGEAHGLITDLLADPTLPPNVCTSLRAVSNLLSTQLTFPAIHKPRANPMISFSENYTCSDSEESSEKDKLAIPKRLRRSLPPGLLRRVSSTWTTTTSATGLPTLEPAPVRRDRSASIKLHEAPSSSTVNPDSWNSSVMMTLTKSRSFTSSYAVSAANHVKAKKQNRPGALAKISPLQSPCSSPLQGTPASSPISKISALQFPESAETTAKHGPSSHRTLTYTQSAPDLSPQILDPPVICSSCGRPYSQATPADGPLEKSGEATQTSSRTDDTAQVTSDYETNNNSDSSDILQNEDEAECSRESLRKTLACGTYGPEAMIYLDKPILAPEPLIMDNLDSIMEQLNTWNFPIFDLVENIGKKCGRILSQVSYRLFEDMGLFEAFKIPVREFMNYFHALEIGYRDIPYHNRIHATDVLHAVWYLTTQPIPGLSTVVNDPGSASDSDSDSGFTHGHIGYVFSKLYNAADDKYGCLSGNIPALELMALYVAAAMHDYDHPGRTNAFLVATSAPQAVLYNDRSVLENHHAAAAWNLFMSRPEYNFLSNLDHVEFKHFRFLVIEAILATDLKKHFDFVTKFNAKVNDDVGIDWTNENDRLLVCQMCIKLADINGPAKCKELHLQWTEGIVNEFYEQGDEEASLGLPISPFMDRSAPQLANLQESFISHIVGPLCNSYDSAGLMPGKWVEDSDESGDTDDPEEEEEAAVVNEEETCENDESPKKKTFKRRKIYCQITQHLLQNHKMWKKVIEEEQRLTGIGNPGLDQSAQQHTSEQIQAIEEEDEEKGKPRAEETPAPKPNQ
Description: The PDEIII inhibition was studied by using enzyme preparation isolated from dog and guinea-pig heart according to Alajoutsijarvi and Nissinen (Anal. Biochem. 165, 128-132, 1987).

[6] = read-out: EC50 cardiotonic effect (A)
[7] = dog heart, read-out: IC50-value, inhibition of cardiac phosphodiesterase III, Dog
[8] = without carbachol, read-out: EC50 cardiotonic effect (A)

Structure (SMILES) | Ratio Ca^2+ /EDTA (retention times in troponin-HPLAC column) (troponin) | Retention time in troponin-HPLAC column, Ca^2+ solution (troponin) | Retention time in troponin-HPLAC column, EDTA solution (troponin) | IC50 [3, 7] | EC50 ([2]; in the presence of 10 μM carbachol, read-out: EC50 cardiotonic effect (B)) | EC50 [2, 8] | precipitation [4] | IC50 [5] | C: ability to induce tonic contraction in the absence of extracellular calcium [1] | EC50 [2, 6] | Ratio B/A of EC50 [2] | IC50 [3]
N#CC(C#N)=NNc1ccc(C2=NNC(=O)CC2)cc1 [Example 1, 6-[4-(1,1-dicyanomethylidenehydrazino)phenyl]-4,5-dihydropyridazin-3(2H)one] | 1.59 | 3.5 min | 2.2 min | 0.27 µM |  |  |  |  | yes | 1.8 µM | 2.0 | 
CC1CC(=O)NN=C1c1ccc(NN=C(C#N)C#N)cc1 (stereo not shown) [Example 6, 6-[4-(1,1-dicyanomethylidenehydrazino)phenyl]-4,5-dihydro-5-methylpyridazin-3(2H)one] |  |  |  | 0.062 µM |  |  |  |  |  | 0.17 µM |  | 
N#CC(C#N)=NNc1ccc(C=CC2=NNC(=O)SC2)cc1 [Example 49, 5-[2-(4-(1,1-dicyanomethylidenehydrazino)phenyl)ethenyl]-5,6-dihydro-1,3,4-thiadiazin-2(3H)one] | 2.30 | 18.4 min | 8.0 min |  |  |  |  | 0.024 µM | yes | 1.1 µM |  | 
CC1(C)C(=O)Nc2cc3[nH]c(-c4ccncc4)nc3cc21 [adibendan, reference compound] | 0.99 | 14.8 min | 15.0 min | 1 µM |  |  |  |  |  |  |  | 
Cc1[nH]c(=O)c(C#N)cc1-c1ccncc1 [milrinone, reference compound] | 1.00 | 1.2 min | 1.2 min |  |  |  |  | 0.44 µM | no | 0.36 µM | 15.3 | 0.58 µM
COc1ccc(-c2nc3ccc(C4=NNC(=O)CC4C)cc3[nH]2)cc1 (stereo not shown) [pimobendan, reference compound] | 0.88 | 70.4 min | 79.6 min | 1.75 µM |  | 3.3 µM |  |  | no |  |  | 

More lines, main results first:

Ratio Ca^2+ /EDTA (retention times in troponin-HPLAC column) (troponin) | Retention time in troponin-HPLAC column, Ca^2+ solution (troponin) | Retention time in troponin-HPLAC column, EDTA solution (troponin) | IC50 [3, 7] | EC50 ([2]; in the presence of 10 μM carbachol, read-out: EC50 cardiotonic effect (B)) | EC50 [2, 8] | precipitation [4] | IC50 [5] | Structure (SMILES) | C: ability to induce tonic contraction in the absence of extracellular calcium [1] | EC50 [2, 6] | Ratio B/A of EC50 [2] | IC50 [3]
1.29 | 5.4 min | 4.2 min | 0.23 µM | 2.7 µM | 0.74 µM | * |  | CC(=O)C(=NNc1ccc(C2=NNC(=O)CC2)cc1)C(C)=O [Example 7, 6-[4-(1,1-diacetylmethylidenehydrazino)phenyl]-4,5-dihydropyridazin-3(2H)on] |  |  | 3.6 | 
1.69 | 6.6 min | 3.9 min |  |  | 0.3 µM |  | 0.006 µM | CC1CC(=O)NN=C1/C=C/c1ccc(NN=C(C#N)C#N)cc1 (stereo not shown) [Example 33, (E)-6-[2-(4-(1,1-dicyanomethylidenehydrazino)phenyl)ethenyl]-4,5-dihydro-5-methylpyridazin-3(2H)one] | yes |  |  | 
2.19 | 10.5 min | 4.8 min |  |  | 0.12 µM |  | 0.024 µM | CC1SC(=O)NN=C1c1ccc(NN=C(C#N)C#N)cc1 (stereo not shown) [Example 41, 5-[4-(1,1-dicyanomethylidenehydrazino)phenyl]-5,6-dihydro-6-methyl-1,3,4-thiadiazin-2(3H)one] | yes |  |  | 
2.00 | 2.4 min | 1.2 min |  |  |  |  | 0.017 µM | CC1NC(=O)NN=C1c1ccc(NN=C(C#N)C#N)cc1 (stereo not shown) [Example 43, 6-[4-(1,1-dicyanomethylidenehydrazino)phenyl]-4,5-dihydro-5-methyl-1,2,4-triazin-3(2H)one] |  |  |  | 
 |  |  |  |  | 1.1 µM |  | 0.051 µM | N#CC(C#N)=NNc1ccc(C2=NNC(=O)SC2)cc1 [Example 44, 5-[4-(1,1-dicyanomethylidenehydrazino)phenyl]-5,6-dihydro-1,3,4-thiadiazin-2(3H)one] | yes |  |  | 
2.33 | 2.1 min | 0.9 min |  |  |  |  |  | N#CC(C#N)=NNc1ccc(C2=NNC(=O)NC2)cc1 [Example 45, 6-[4-(1,1-dicyanomethylidenehydrazino)phenyl]-4,5-dihydro-1,2,4-triazin-3(2H)one] |  |  |  | 
0.52 | 6.5 min | 12.4 min | 0.42 µM |  |  |  |  | O=C1CCC(c2ccc(Nc3ccncc3)cc2)=NN1 [MCI-154, reference compound] |  |  |  | 
